Results published in patent US12398154B2, “Azaquinazoline pan-KRas inhibitors” (Mirati Therapeutics, Inc., priority 2020, dated 2025).

Assays:
Test in all cases: biochemical
KRas G12D = KRas G12D (Homo sapiens, UniProt P01116, G12D);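 further: TR-FRET displacement binding assay on KRas, read after a one-hour incubation at room temperature, IC50 fitted from percent-of-control values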
Description: (§1) The ability of a compound to bind to KRas was measured using a TR-FRET displacement assay. […] After a 60-minute incubation at room temperature, the reaction was measured using a BMG LABTECH CLARIO star Plus via TR-FRET. […] The POC values were fit to a 4-parameter IC50 equation and the IC50 value reported.

KRas G12V = KRas G12V (Homo sapiens, UniProt P01116, G12V);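 further: KRas binding measured by TR-FRET displacement at room temperature, IC50 fitted from percent of control values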
KRas G12V, sequence (P01116 1-169 isoform P01116-2 G12V): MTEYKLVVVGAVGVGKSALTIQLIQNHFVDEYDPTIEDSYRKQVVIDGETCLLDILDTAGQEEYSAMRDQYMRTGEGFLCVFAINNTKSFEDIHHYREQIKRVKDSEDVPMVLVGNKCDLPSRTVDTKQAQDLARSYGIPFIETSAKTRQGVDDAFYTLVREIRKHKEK
Description: as §1

KRas G12R = KRas G12R (Homo sapiens, UniProt P01116, G12R);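 further: TR-FRET displacement assay of compound binding to KRas, read after one hour at room temperature, potency from a four-parameter fit of percent-of-control values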
KRas G12R, sequence (P01116 1-169 isoform P01116-2 G12R): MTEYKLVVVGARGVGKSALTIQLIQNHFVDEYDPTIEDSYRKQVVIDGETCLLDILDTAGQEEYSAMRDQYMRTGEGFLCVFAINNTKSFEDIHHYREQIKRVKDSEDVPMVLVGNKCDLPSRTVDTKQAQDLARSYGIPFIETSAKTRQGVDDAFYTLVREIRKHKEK
Description: as §1

KRas G12C = KRas G12C (Homo sapiens, UniProt P01116, G12C);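 further: binding to KRas assessed by TR-FRET displacement after one hour incubation at room temperature, potency fitted from percent-of-control values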
KRas G12C, sequence (P01116 1-169 isoform P01116-2 G12C): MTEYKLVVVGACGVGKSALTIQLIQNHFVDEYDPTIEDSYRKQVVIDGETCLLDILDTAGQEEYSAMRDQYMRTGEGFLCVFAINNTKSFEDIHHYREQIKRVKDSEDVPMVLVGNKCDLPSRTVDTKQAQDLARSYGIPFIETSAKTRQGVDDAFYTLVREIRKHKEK
Description: as §1

KRas G12D, sequence (P01116 1-169 isoform P01116-2 G12D): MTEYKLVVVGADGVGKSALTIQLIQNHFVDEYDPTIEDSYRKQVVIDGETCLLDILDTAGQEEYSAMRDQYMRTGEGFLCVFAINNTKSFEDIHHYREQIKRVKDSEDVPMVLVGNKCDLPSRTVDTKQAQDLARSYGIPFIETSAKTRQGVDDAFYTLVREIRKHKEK

| IC50 (KRas G12D) [µM] | IC50 (KRas G12V) [µM] | IC50 (KRas G12R) [µM] | IC50 (KRas G12C) [µM] | SMILES |
| --- | --- | --- | --- | --- |
| 9.97 | 12.1 | 14.9 | 62.1 | CC1CCCN(c2nc(OCC34CCCN3CCC4)nc3c(F)c(-c4cccc5cccc(F)c45)ncc23)C1 (centres unmarked) [Example 22, 8-fluoro-7-(8-fluoronaphthalen-1-yl)-2-((hexahydro-1H-pyrrolizin-7a-yl)methoxy)-4-(3-methylpiperidin-1-yl)pyrido[4,3-d]pyrimidine] |
| 5.27 | 4.3 | 6.18 | 4.74 | OC1CCCN(c2nc(OCC34CCCN3CCC4)nc3c(F)c(-c4cccc5cccc(F)c45)ncc23)C1 (centres unmarked) [Example 23, 1-(8-fluoro-7-(8-fluoronaphthalen-1-yl)-2-((hexahydro-1H-pyrrolizin-7a-yl)methoxy)pyrido[4,3-d]pyrimidin-4-yl)piperidin-3-ol] |
| 0.139 | 0.212 | 0.41 | 0.295 | C#Cc1cccc2cccc(-c3ncc4c(N5CCCC(C)(O)C5)nc(OCC56CCCN5CCC6)nc4c3F)c12 (centres unmarked) [Example 55] |
| 14.1 | 15 | 45.1 | 21 | CC1(O)CCCCN(c2nc(OCC34CCCN3CCC4)nc3c(F)c(-c4cccc5cccc(F)c45)ncc23)C1 (centres unmarked) [Example 65, 1-(8-fluoro-7-(8-fluoronaphthalen-1-yl)-2-((hexahydro-1H-pyrrolizin-7a-yl)methoxy)pyrido[4,3-d]pyrimidin-4-yl)-3-methylazepan-3-ol] |
| 10.4 | 11.5 | 16.1 | 14.2 | CC1(O)CCCN(c2nc(OCC34CCCN3CCC4)nc3c(F)c(-c4cccc5sc(N)nc45)ncc23)C1 (centres unmarked) [Example 67, 1-(7-(2-aminobenzo[d]thiazol-4-yl)-8-fluoro-2-((hexahydro-1H-pyrrolizin-7a-yl)methoxy)pyrido[4,3-d]pyrimidin-4-yl)-3-methylpiperidin-3-ol] |
| 2.46 | 4.44 | 8.25 |  | CC1(O)CCCN(c2nc(OCC34CCCN3CCC4)nc3c(F)c(-c4cc(O)ccc4F)ncc23)C1 (centres unmarked) [Example 429, 1-(8-fluoro-7-(2-fluoro-5-hydroxyphenyl)-2-((tetrahydro-1H-pyrrolizin-7a(5H)-yl)methoxy)pyrido[4,3-d]pyrimidin-4-yl)-3-methylpiperidin-3-ol] |
| 8.78 | 10 | 15.4 |  | O=C1CC2(CCCN(c3nc(OCC45CCCN4CCC5)nc4c(F)c(-c5cccc6cccc(CO)c56)ncc34)C2)N1 (centres unmarked) [Example 433, 6-(8-fluoro-2-((hexahydro-1H-pyrrolizin-7a-yl)methoxy)-7-(8-(hydroxymethyl)naphthalen-1-yl)pyrido[4,3-d]pyrimidin-4-yl)-1,6-diazaspiro[3.5]nonan-2-one] |
| 48.8 | 10.7 | 6.37 |  | N#Cc1cccc2cccc(-c3ncc4c(N5CCCC(c6nc[nH]n6)C5)nc(OCC56CCCN5CCC6)nc4c3F)c12 (centres unmarked) [Example 456, 8-(4-(3-(1H-1,2,4-triazol-3-yl)piperidin-1-yl)-8-fluoro-2-((hexahydro-1H-pyrrolizin-7a-yl)methoxy)pyrido[4,3-d]pyrimidin-7-yl)-1-naphthonitrile] |
| 15.6 | 6.1 | 10.1 |  | NS(=O)(=O)CC1CCCN(c2nc(OCC34CCCN3CCC4)nc3c(F)c(-c4cccc5cccc(C(F)(F)F)c45)ncc23)C1 (centres unmarked) [Example 465, 1-(1-(8-fluoro-2-((hexahydro-1H-pyrrolizin-7a-yl)methoxy)-7-(8-(trifluoromethyl)naphthalen-1-yl)pyrido[4,3-d]pyrimidin-4-yl)piperidin-3-yl)methanesulfonamide] |
| 0.221 | 0.151 | 0.31 |  | CCc1c(F)ccc2cc(O)cc(-c3ncc4c(N5CCN6C(C5)C(=O)NC6(C)C)nc(OC[C@@]56CCCN5C[C@H](F)C6)nc4c3F)c12 (stereo partly drawn) [Example 489, 7-(7-(8-ethyl-7-fluoro-3-hydroxynaphthalen-1-yl)-8-fluoro-2-(((2R,7aS)-2-fluorohexahydro-1H-pyrrolizin-7a-yl)methoxy)pyrido[4,3-d]pyrimidin-4-yl)-3,3-dimethylhexahydroimidazo[1,5-a]pyrazin-1(5H)-one] |
